Results as given in paper PMC8147781, “Discovery of Pyrrolidine-2,3-diones as Novel Inhibitors of P. aeruginosa PBP3” (Antibiotics, 2021).
Values after ≈ are worked out from the molar mass of the structure shown.

Experiments:
[1] = target: T1, PBP3 of P. aeruginosa (PaPBP3) (Pseudomonas aeruginosa, UniProt G3XD46); assay: S2dfluo fluorescence transpeptidase assay; format: biochemical; conditions: 300 nM PaPBP3, 30 min preincubation, 37 °C; for IC50: read-out: IC50 Determination with PaPBP3, S2dfluo Assay
T1 construct: P. aeruginosa PBP3 (amino acids 40 to 563); His-tag; made in house; host or cells: E. coli BL21 (DE3) Rosetta, plasmid pET41_PBP-3
T1 sequence (G3XD46 40-563): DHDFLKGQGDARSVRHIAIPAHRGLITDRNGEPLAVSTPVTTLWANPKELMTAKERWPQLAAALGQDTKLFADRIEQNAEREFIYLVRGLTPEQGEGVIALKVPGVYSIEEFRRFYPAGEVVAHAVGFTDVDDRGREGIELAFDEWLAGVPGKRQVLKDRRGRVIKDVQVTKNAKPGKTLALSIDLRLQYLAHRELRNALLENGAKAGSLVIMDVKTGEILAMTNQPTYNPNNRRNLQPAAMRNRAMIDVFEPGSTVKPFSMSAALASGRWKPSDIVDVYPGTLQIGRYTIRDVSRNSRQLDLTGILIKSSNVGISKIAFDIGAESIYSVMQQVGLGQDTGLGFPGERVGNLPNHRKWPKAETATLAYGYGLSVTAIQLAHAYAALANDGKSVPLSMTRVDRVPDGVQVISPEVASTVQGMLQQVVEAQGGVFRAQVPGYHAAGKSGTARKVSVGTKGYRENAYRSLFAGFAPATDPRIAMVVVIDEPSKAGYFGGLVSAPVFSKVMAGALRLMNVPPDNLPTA
Description: The assays were carried out in the presence of 5% DMSO and 0.01% Triton X100 to avoid the formation of colloidal structures and adsorption of protein and/or compounds to surfaces. The Z’-factor determined for the assay was 0.73 ± 0.28, indicating the suitability and robustness of the assay for high throughput screening (HTS) (Figure 1B,C).
The activity of soluble ^PaPBP3 (300 nM) was measured in the presence of 0.8 mM S2d, 1 mM D-alanine and 0.5 mM mBBr for 25 min by monitoring the increase in the fluorescence intensity of mBBr at Ex/Em: 394/490 nm using an Infinite M1000 microplate reader (Tecan, Männedorf, Switzerland). To test the effect of inhibitors, 100 µM or 0.8 to 100 µM of compounds diluted in 96% DMSO were incubated for 30 min and 450 rpm with 300 nM soluble PBP3. The incubation period was set to improve the binding of non-covalent inhibitors and 0.01% Triton X100 (Sigma-Aldrich, Taufkirchen, Germany) was added to prevent aggregation of compounds. The enzyme reaction was started by adding a substrate mix of 0.8 mM S2d and […]. The enzyme, compound and substrate mix were mixed 1:1, pipetted with a Liquidator 96 (Melter Toledo, Gießen, Germany) and the fluorescence intensity was directly monitored with an Infinite M1000 microplate reader (Tecan) at Ex/Em: 394/490 nm. The assay was performed in black, flat-bottom 96-well microplates (Greiner Bio-One, Kremsmünster, Austria) at 37 °C in Sorensen Phosphate Buffer (57 mM Na2HPO4 and 10 mM KH2PO4, pH 7.5 + 0.01% Triton X-100). The velocity of the PBP3 reaction was calculated in the presence of each concentration of compound and the velocity values were used to estimate IC50 by sigmoidal nonlinear regression, using Prism v.9 software (San Diego, CA, USA) and the velocity of the reaction at each concentration.

E. coli Neumann = assay: MIC broth microdilution, E. coli; format: cell-based; conditions: Escherichia coli; Table S3; read-out: MIC (µM) E. coli Neumann
How it was run: (§1)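 CLSI broth microdilution in cation-adjusted Mueller Hinton broth, 5 × 10^4 bacteria per well with 1:2 serial compound dilutions, PMBN added where applicable. MIC read visually after 18 h at 37 °C. Confirmation by 10% PrestoBlue, fluorescence at Ex/Em 550/595 nm after 30 min.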

[2] = tested on: K. pneumoniae clinical isolate; assay: MIC broth microdilution, K. pneumoniae; format: cell-based; conditions: Klebsiella pneumoniae; Table S3
How it was run: as §1

A. baumannii ATCC15308 = assay: MIC broth microdilution, A. baumannii; format: cell-based; conditions: 10 µg/mL PMBN
How it was run: as §1

S. pneumoniae = assay: MIC broth microdilution, S. pneumoniae; format: cell-based; conditions: Streptococcus pneumoniae; Table S3; read-out: MIC (µM) S. pneumoniae
How it was run: as §1

B. subtilis 168 = assay: MIC broth microdilution, B. subtilis; format: cell-based; conditions: Bacillus subtilis, 168; Table S3
How it was run: as §1

S. aureus 133 = assay: MIC broth microdilution, S. aureus; format: cell-based; conditions: Staphylococcus aureus, 133; Table S3
How it was run: as §1

[3] = tested on: T-lymphoblast CCRF-CEM cell line; assay: Cytotoxicity assay (PrestoBlue), CCRF-CEM; conditions: for Cytotoxicity CCRF-CEM: CC50, 72 h; for cytotoxic potential at the tested cell lines: four cell lines: NRK-52E, Hep G2, CCRF-CEM, H9
Description: (§2) We finally tested the cytotoxicity of the compounds against four eukaryotic cell lines (Table 2 and Table S5), NRK-52E, an epithelial kidney cell line of Rattus norvegicus; Hep G2, an human epithelial liver cell line; and two suspension cell lines: CCRF-CEM, a T lymphoblast; and H9, a cutaneous T lymphocyte cell line.
(§3) Cell lines stored at −120 °C were thawed to 37 °C and resuspended in 10 mL of medium pre-warmed to 37 °C. Cells were pelleted at 300× g for 10 min, and then resuspended in fresh medium, seeded in a T-75 culture flask, and placed in a CO2 incubator (37 °C with 5% CO2 tension). Once the cells reached approximately 70–80% confluency, they were then passaged regularly. The adherent cell lines NRK52E, HepG2 and Huh 7 were washed once with 10 mL DPBS and detached with Trypsin-EDTA for 5 to 7 min and resuspended in 15 mL of the appropriate medium. The suspension cell line CCRF-CEM were diluted and resuspended in fresh RPMI 1640 PAN medium. To calculate the cell density, the cell resuspensions were diluted 1:6 with DPBS. Equal volumes of cell suspension and Trypan Blue were mixed and gently loaded into a haemocytometer (INCYTO, 31056 Republic of Korea). In each experiment, cell concentrations were adjusted to reach a concentration of 2.5 × 10^3 cell/well for NRK52E, 5 × 10^3 cell/well for HepG2, 6.2 × 10^4 cell/well for CCRF-CEM and 3 × 10^3 for H9. The cells were incubated with decreasing concentration of compounds (1 µL in 96% DMSO) for 72 h at 37 °C with 5% CO2 tension. Cycloheximide, a cytotoxic compound that interferes with the translocation step in eukaryotic protein synthesis was used as a control for the experiments. The assay was carried out in flat-bottom, transparent 96-well plates. Cell viability was determined using the PrestoBlue reagent (Thermo Fisher Scientific, Waltham, MA, USA) according to the manufacture’s protocol. First, 10× PrestoBlue was added to each well to obtain a 1× solution, and incubated at 37 °C for 45 min. Then, fluorescence was measured at Ex/Em: 550/595 nm using a ClarioStar microplate reader (BMG Labtech). Cytotoxicity was determined as the percentage of the difference in absorbance of the untreated sample to the treated sample. CC50 was calculated using the values obtained in each concentration using the sigmoidal dose-response by Prism v.8. The media used in each cell line is detailed in Table S6.

[4] = tested on: Hep G2, epithelial liver cell line; assay: Cytotoxicity assay (PrestoBlue), HepG2; conditions: CC50, 72 h
Description: as §2, §3

[5] = tested on: NRK-52E, epithelial kidney cell line; assay: Cytotoxicity assay (PrestoBlue), NRK52E; conditions: CC50, 72 h
Description: as §2, §3

[6] = tested on: H9, cutaneous T lymphocyte cell line; assay: Cytotoxicity assay (PrestoBlue), H9; conditions: CC50, 72 h
Description: as §2, §3

Structure (SMILES)	IC50 [1] [µM]	MIC (E. coli Neumann) [µM]	MIC [2] [µM]	MIC (µM) A. baumanii ATCC15308 (A. baumannii ATCC15308) [µM]	MIC (S. pneumoniae) [µM]	MIC (B. subtilis 168) [µM]	MIC (S. aureus 133) [µM]	Cytotoxicity CCRF-CEM [3] [µM]	cytotoxic potential at the tested cell lines [3]	Cytotoxicity effect (µM) Epithelial liver HepG2 [4] [µM]	Cytotoxicity effect (µM) Epithelial kidney NRK52E [5] [µM]	Cytotoxicity effect (µM) T-lymphocyte H9 [6] [µM]	IC50 Determination with PaPBP3, S2dfluo Assay [1]
O=C(C1=C(O)C(=O)N(CCc2cc3ccccc3[nH]2)C1c1ccc(Cl)cc1)c1ccc(Br)cc1 (stereo not drawn) [Compound 37]	16 ± 8	> 100	> 100	> 100	50 (≈ 26.8 µg/mL)	3.13 (≈ 1.68 µg/mL)	6.25 (≈ 3.35 µg/mL)	8 ± 6	high cytotoxic potential	20 ± 4	9 ± 12	19 ± 6	
O=C(C1=C(O)C(=O)N(Cc2nc3ccccc3[nH]2)C1c1ccc(Cl)cc1)c1ccc(Br)cc1 (stereo not drawn) [Compound 38]	100 ± 11	> 100	> 100	> 100	25 (≈ 13.1 µg/mL)	> 100	> 100	>100		> 100	> 100	> 100	drastic loss of the inhibitory activity
O=C(C1=C(O)C(=O)N(CCc2c[nH]c3ccccc23)C1c1ccc(Cl)cc1)c1ccc(Br)cc1 (stereo not drawn) [Compound 40]	8 ± 4	> 100	> 100	> 100	12.5 (≈ 6.7 µg/mL)	> 100	> 100	93 ± 4		> 100	> 100	> 100	
O=C(C1=C(O)C(=O)N(Cc2ccco2)C1c1ccc(Cl)cc1)c1ccc(Br)cc1 (stereo not drawn) [Compound 41, 4-(4-bromobenzoyl)-5-(4-chlorophenyl)-1-(furan-2-ylmethyl)-3-hydroxy-5H-pyrrol-2-one]	> 100	> 100	> 100	> 100	50 (≈ 23.6 µg/mL)	> 100	> 100	>100		> 100	> 100	> 100	abolished the inhibitory activity
O=C(C1=C(O)C(=O)N(Cc2cscn2)C1c1ccc(Cl)cc1)c1ccc(Br)cc1 (stereo not drawn) [Compound 42]	> 100	> 100	> 100	> 100	> 100	> 100	> 100	>100		> 100	> 100	> 100	abolished the inhibitory activity
O=C(C1=C(N2CCOCC2)C(=O)N(Cc2cccc(F)c2)C1c1ccc(Cl)cc1)c1ccc(Br)cc1 (stereo not drawn) [Compound 44, 4-(4-bromobenzoyl)-5-(4-chlorophenyl)-1-[(3-fluorophenyl)methyl]-3-(morpholin-4-yl)-5H-pyrrol-2-one]	> 100	> 100	> 100	> 100	> 100	> 100	> 100	> 100		> 100	52 ± 3	> 100	
CCNC1=C(C(=O)c2ccc(Br)cc2)C(c2ccc(Cl)cc2)N(Cc2c[nH]c3ccccc23)C1=O (stereo not drawn) [Compound 45]	> 100	> 100	> 100	> 100	25 (≈ 13.7 µg/mL)	> 100	6.25 (≈ 3.43 µg/mL)		high cytotoxic potential	23 ± 8	23 ± 11	32 ± 10	
